This assay deals with T1, pig brain prolyl oligopeptidase (Sus scrofa, UniProt P23687).
T1 construct: The brains were homogenized with a glass-teflon homogenisator; from tissue; host or cells: pig brain (excluding cerebellum and most of the brain stem), 10000 g supernatant of the homogenate
The assay is described as follows: Inhibition of prolyl oligopeptidase activity of pig brain (Suc-Gly-Pro-AMC, fluorometric). The assay is classed as biochemical. As to conditions: pig brain homogenate supernatant, 30° C., pH 7.0. The method, then: The whole pig brains, excluding cerebellum and most of the brain stem, of three pigs were placed in liquid nitrogen within 30 min from killing and stored at −80° C. until homogenized. The brains were homogenized with a glass-teflon homogenisator in 3 volumes (w/v) of ice-cold 0.1 M sodium-potassium phosphate buffer (pH 7.0) and the homogenates were centrifuged for 20 min at 4° C. at 10000 g. The supernatants were collected, pooled and stored in small aliquots at −80° C. until used. The supernatant was thawn in ice just before activity assay and diluted in a ratio 1:2 with homogenisation buffer (=enzyme preparation).
In the microplate assay procedure, 10 μl of enzyme preparation was preincubated with 460 μl of 0.1 M sodium-potassium phosphate buffer (pH 7.0) and 5 μl of a solution of novel compound dissolved in DMSO and diluted with 0.1 M sodium-potassium phosphate buffer at 30° C. for 30 min. The controls contained 10 μl enzyme preparation and 465 μl of 0.1 M sodium-potassium phosphate buffer (pH 7.0). The reaction was initiated by adding 25 μl of 4 mM Suc-Gly-Pro-AMC (AMC: 7-amido-4-methylcoumarin) dissolved in 0.1 M sodium-potassium phosphate buffer (pH 7.0), and the mixture was incubated at 30° C. for 60 min. The reaction was terminated by adding 500 μl of 1 M sodium acetate buffer (pH 4.2).
Formation of 7-amido-4-methylcoumarin was determined fluorometrically with microplate fluorescence reader (excitation at 360 nm and emission at 460 nm). The final concentration of novel compounds in the assay mixture varied from 10^−12 M to 10^−4 M.
The prolyl oligopeptidase activity was calculated with the following formula in the presence of various concentrations of novel compounds. To reveal the inhibitory potency of the novel compound, activities (% of control) were plotted against the log concentration of the compound, and the IC50 value was determined by non-linear regression utilizing GraphPad Prism software.
Activity (% of control)=a/b×100, where • a=flourescence intensity in the presence of a novel compound • […] a novel compound (control)

T1 sequence (P23687 whole entry): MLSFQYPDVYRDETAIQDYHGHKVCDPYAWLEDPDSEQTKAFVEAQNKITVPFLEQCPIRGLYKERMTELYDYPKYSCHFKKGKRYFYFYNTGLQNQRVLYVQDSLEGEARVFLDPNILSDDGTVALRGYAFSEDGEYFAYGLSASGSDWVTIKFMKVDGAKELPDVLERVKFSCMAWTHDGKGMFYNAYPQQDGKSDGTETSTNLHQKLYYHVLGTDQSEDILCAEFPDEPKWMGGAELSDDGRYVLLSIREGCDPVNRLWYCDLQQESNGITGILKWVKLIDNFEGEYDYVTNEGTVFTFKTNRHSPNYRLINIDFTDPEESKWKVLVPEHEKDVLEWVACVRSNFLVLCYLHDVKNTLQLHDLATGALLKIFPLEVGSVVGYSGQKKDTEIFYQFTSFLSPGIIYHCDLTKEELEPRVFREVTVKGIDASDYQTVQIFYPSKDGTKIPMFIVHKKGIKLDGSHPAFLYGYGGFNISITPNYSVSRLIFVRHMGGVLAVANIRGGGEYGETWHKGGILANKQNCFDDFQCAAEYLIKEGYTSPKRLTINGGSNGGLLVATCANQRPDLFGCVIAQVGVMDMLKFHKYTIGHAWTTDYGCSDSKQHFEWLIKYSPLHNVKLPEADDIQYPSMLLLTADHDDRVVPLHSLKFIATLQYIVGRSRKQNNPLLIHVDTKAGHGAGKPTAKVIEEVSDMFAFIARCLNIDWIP

Consider `O=C([C@@H]1CCCN1C(=O)c1cccc(C(=O)N2CCC[C@H]2C(=O)N2CCCC2)c1)N1CCCC1` [Example 11, Isophthalic acid di-(L-prolyl-pyrrolidine)amide], for which the IC50 (in general, the concentration that inhibits the measured activity by half) came to 26 nM.

Consider `N#C[C@@H]1CCCN1C(=O)[C@@H]1CCCN1C(=O)CCC(=O)N1CCCCCC1` [Example 18, Succinic acid hexamethyleneimine L-prolyl-2(S)-cyanopyrrolidine amide], for which it took 0.8 nM to reach half-maximal inhibition (IC50).

`N#C[C@@H]1CCCN1C(=O)[C@@H]1CCCN1C(=O)CCC(=O)N1CCC[C@H]1C(=O)N1CCC[C@H]1C#N` [Example 21, Succinic acid di-(L-prolyl-2(S)-cyanopyrrolidine)amide] had a 50% inhibitory concentration (IC50) of 0.8 nM.

Take `O=C(CO)[C@@H]1CCCN1C(=O)[C@@H]1CCCN1C(=O)c1cccc(C(=O)N2CCC[C@H]2C(=O)N2CCCC2)c1` [Example 22, Isophthalic acid L-prolyl-2(S)-(hydroxyacetyl)pyrrolidine L-prolyl-pyrrolidine amide]: the IC50 turned out to be 0.4 nM.

On to `O=C(C1CCCC1)[C@@H]1CCCN1C(=O)c1cccc(C(=O)N2CCC[C@H]2C(=O)C2CCCC2)c1` [Example 41, Isophthalic acid di-(2(S)-(cyclopentanecarbonyl)pyrrolidine)amide], for which the IC50 is 78 nM.

`C[C@H](NC(=O)c1cccc(C(=O)N[C@@H](C)C(=O)N2CCCC2)c1)C(=O)N1CCCC1` [Example 46, Isophthalic acid di-(L-alanyl-pyrrolidine)amide] had an IC50 of 87 nM.

`CSCC[C@H](NC(=O)c1cccc(C(=O)N[C@@H](CCSC)C(=O)N2CCCC2)c1)C(=O)N1CCCC1` [Example 47, Isophthalic acid di-(L-methionyl-pyrrolidine)amide]: the concentration for half-maximal inhibition (IC50) stood at 110 nM.

On to `O=C(CCCC(=O)N1CCC[C@H]1C(=O)N1CCCC1)N1CCCCCC1` [Example 48, Glutaric acid hexamethyleneimine L-prolyl-pyrrolidine amide], for which the 50% inhibitory concentration (IC50) was 28 nM.

`O=C(NC(Cc1ccccc1)C(=O)N1CCCC1)c1cccc(C(=O)NC(Cc2ccccc2)C(=O)N2CCCC2)c1` [Example 50, Isophtalic acid di-(L-phenylalanyl-pyrrolidine)amide] registered an IC50 of 79 nM.
